From patent US20110009420A1, “Histamine H3 Receptor Ligands” (HIGH POINT PHARMACEUTICALS, LLC, priority 2008, published 2011)
Counter-ions that a name gives are not always drawn. Like-named read-outs stand apart in the source and are kept apart here.

How the values were obtained:
[1] = molecular target: T1, human histamine H3 receptor (Homo sapiens, UniProt Q9Y5N1); experiment: functional [35S]GTPγS binding assay (antagonist potency, inhibition of RAMHA-stimulated binding); assay type: biochemical; conditions: for [35S]GTPγS binding Ki(nM): functional Ki from full dose-response IC50 by Cheng-Prusoff, 10 nM RAMHA, re-synthesized compounds
T1 construct: expressed in transfected cells
T1 sequence (Q9Y5N1 whole entry): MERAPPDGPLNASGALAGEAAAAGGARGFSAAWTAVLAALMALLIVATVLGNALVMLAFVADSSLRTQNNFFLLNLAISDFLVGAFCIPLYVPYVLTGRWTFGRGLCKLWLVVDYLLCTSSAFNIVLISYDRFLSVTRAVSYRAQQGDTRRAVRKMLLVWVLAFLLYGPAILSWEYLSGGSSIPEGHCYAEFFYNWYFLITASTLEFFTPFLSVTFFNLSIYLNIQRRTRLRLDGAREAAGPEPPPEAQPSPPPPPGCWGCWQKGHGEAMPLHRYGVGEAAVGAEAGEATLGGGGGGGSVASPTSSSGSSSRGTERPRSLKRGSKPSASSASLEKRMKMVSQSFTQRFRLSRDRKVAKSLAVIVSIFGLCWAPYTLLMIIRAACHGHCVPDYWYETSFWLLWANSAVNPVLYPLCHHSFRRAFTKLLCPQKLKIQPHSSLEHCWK
Method: CHO-cells, stably expressing the human histamine H3 receptor, were harvested and membranes were prepared by threefold homogenization in a HEPES buffer (20 mM HEPES, 0.1-10 mM EDTA; pH 7.4). […] The hits were subsequently tested in full dose-response curves for functional IC50 determinations. After 2 h incubation at RT with gentle shaking of the plate, the plate was centrifuged at 370 RCF for 10 min and subsequently the radioactivity was counted in a Packard TopCount-NXT.
The IC50 values were calculated by non-linear regression analysis using GraphPad Prism.

[2] = read-out: [35S]GTPγS binding Ki

SMILES	melting point [°C]	inhibition at 3.5 µM [1] [%]	Ki [1, 2] [nM]	other results
O=C(c1cc2ccccc2s1)N1CCN(CCCN2CCCCC2)CC1 (as salt: hydrochloride) (hydrate or solvate) [Compound A11B12]	265 to 267			
O=C(c1cc2ccccc2o1)N1CCN(CCCN2CCCCC2)CC1 (as salt: hydrochloride) (hydrate or solvate) [Compound A12B12, Benzofuran-2-yl-(4-(3-(piperidin-1-yl)propyl)piperazin-1-yl)methanone, dihydrochloride]	253 to 255			
COc1ccc2oc(C(=O)N3CCN(CCCN4CCCCC4)CC3)cc2c1 (as salt: hydrochloride) (hydrate or solvate) [Compound A13B12]	255 to 257			
O=C(Cc1ccc(-c2ccccc2)cc1)N1CCN(CCCN2CCCCC2)CC1 (as salt: hydrochloride) (hydrate or solvate) [Compound A15B12]	274 to 276			
O=C(CC1c2ccccc2-c2ccccc21)N1CCN(CCCN2CCCCC2)CC1 (as salt: hydrochloride) (hydrate or solvate) [Compound A18B12, 2-(9H-Fluoren-9-yl)-1-(4-(3-(piperidin-1-yl)propyl)piperazin-1-yl)ethanone, dihydrochloride]	263 to 265			
O=C(Cc1c[nH]c2ccccc12)N1CCN(CCCN2CCCCC2)CC1 (as salt: hydrochloride) [Compound A14B12]	256 to 258			
O=C(c1cccc(Oc2ccccc2)c1)N1CCN(CCCN2CCCCC2)CC1 (as salt: hydrochloride) [Compound A21B12]	274 to 276			
O=C(c1cc2ccccc2s1)N1CCN(CCCN2CCCCC2)CC1 [Compound A11B12]		57	35	
O=C(c1cc2ccccc2o1)N1CCN(CCCN2CCCCC2)CC1 [Compound A12B12, Benzofuran-2-yl-(4-(3-(piperidin-1-yl)propyl)piperazin-1-yl)methanone, dihydrochloride]		70	19	
COc1ccc2oc(C(=O)N3CCN(CCCN4CCCCC4)CC3)cc2c1 [Compound A13B12]		60	16	
O=C(Cc1c[nH]c2ccccc12)N1CCN(CCCN2CCCCC2)CC1 [Compound A14B12]		73		Ki [1]: 10 nM; [35S]GTPγS binding Ki(nM) [1]: low nanomolar range
O=C(Cc1ccc(-c2ccccc2)cc1)N1CCN(CCCN2CCCCC2)CC1 [Compound A15B12]		56		Ki [1]: 51 nM
O=C(CC1c2ccccc2-c2ccccc21)N1CCN(CCCN2CCCCC2)CC1 [Compound A18B12, 2-(9H-Fluoren-9-yl)-1-(4-(3-(piperidin-1-yl)propyl)piperazin-1-yl)ethanone, dihydrochloride]		74	7.4	[35S]GTPγS binding Ki(nM) [1]: low nanomolar range
O=C(c1cccc(Oc2ccccc2)c1)N1CCN(CCCN2CCCCC2)CC1 [Compound A21B12]		62	23	
